Here are results for two compounds from patent EP0209462A1, “Liquid stable anthelmintic and fungicidal composition based on bithionol sulfoxide” (SOCIETE NATIONALE ELF AQUITAINE, priority 1985, dated 1987).

A short description of data set [1]: Stability test at different pH and temperatures (assay of both actives). It counts as physicochemical. The text has this: Des échantillons de la composition de l'exemple 9, qui contient 8% de bithionol sulfoxyde et 1,9% de chlorhydrate de levamisole, sont amenés à différents pH et conservés aux différentes températures, comme indiqué au tableau 4 ci-après.
Les pH inférieurs à 7 sont ajustés avec du tampon mandéli- que (1 M), tandis que les phosphates habituels ont servi (0,025 M) à fixer le pH supérieur à 7.
Dans chaque cas, le dosage des deux corps actifs est effectué aux différentes périodes choisies et les teneurs en ces corps sont notées au tableau 4.

For data set [2] the following is noted: cited from earlier work.
Data set [3] is described as follows: Maximum tolerated dose and therapeutic index. Particulars: in vivo, read-out: indice thérapeutique. The text has this:
La présente invention apporte un progrès marqué dans les traitements des atteintes justiciables du bithionol sulfoxyde et des mélanges de ce composé avec d'autres anthelminthiques. Elle permet l'application des composés actifs sous la forme d'un liquide homogène, ne donnant pas lieu à la sédimentation, susceptible par conséquent d'être dosé avec précision et appliqué par des personnes non spécialisées.Un autre avantage considérable de la composition suivant l'invention est la possibilité de l'administration de celle-ci par injection, forme qui était complètement exclue jusqu'à présent. Un autre avantage également très important de la composition selon l'invention est qu'elle permet l'utilisation du bithionol sulfoxyde et des autres anthelminthiques, composant le mélange, à des doses moindres que celles qui étaient jusqu'alors utilisées. Pour n'en donner qu'un exemple pour le bithionol sulfoxyde, cette dose peut passer de 40 mg/kg de poids vif traité à 30 mg/kg pour une même efficacité. Lorsque l'on sait que la dose maximale tolérée est de 150 mg/kg, cela fait passer l'indice thérapeutique de moins de 4 à 5.

The conditions of data set [4]: in vivo; cited from earlier work.

Like-named read-outs stand apart in the source and are kept apart here.

With `c1ccc([C@H]2CN3CCSC3=N2)cc1` [chlorhydrate de L(-) levamisole, tétrahydro-2,3,5,6 phényl-6 imidazo(2,1-b)thiazole], in data set [1] (pH 6 à 8), the conservation result was “tient mal”. Also, the “solubilité dans l'eau” value in data set [2] (water) is reported as about 20%.
`[O-][S+](c1cc(Cl)cc(Cl)c1O)c1cc(Cl)cc(Cl)c1O` [bithionol sulfoxyde, bis(hydroxy-2 dichloro-3,5 phényl) sulfoxyde]: the conservation entry in data set [1] (pH 2 à 4) is listed as “tout à fait satisfaisante”; in data set [1] (pH de 6 à 8), “se conserve bien”. The “insolubilité dans l'eau” value in data set [2] (à 25°C) is reported as 4 ppm. Moreover, the values for the selectivity ratio in data set [3] (dose 30 mg/kg (composition selon l'invention)) and in data set [3] (dose 40 mg/kg de poids vif (earlier forms)) were 5 and under 4, respectively. In addition, the “dose maximale tolérée” value in data set [4] is given as 150 mg/kg.
